# Assay results published in patent US5565568A, “2-acylaminopropanamides as tachykinin receptor antagonists” (Eli Lilly and Company, priority 1995, dated 1996).
# Where a name gives a salt, the structure may show the parent alone.
# Experiments:
# NK-1 receptor = molecular target: T1, NK-1 receptor (Homo sapiens, UniProt P25103); assay: NK-1 Receptor Binding Assay (125I-labeled substance P, IM9 cells); conditions: inhibition of 125I-substance P binding to IM9 cells, 45 minutes at 4° C.; certain values may be average of more than one experiment
# T1 construct: In this assay an aliquot of IM9 cells; endogenous in cells; host or cells: IM9 cells
# T1 sequence (P25103 whole entry): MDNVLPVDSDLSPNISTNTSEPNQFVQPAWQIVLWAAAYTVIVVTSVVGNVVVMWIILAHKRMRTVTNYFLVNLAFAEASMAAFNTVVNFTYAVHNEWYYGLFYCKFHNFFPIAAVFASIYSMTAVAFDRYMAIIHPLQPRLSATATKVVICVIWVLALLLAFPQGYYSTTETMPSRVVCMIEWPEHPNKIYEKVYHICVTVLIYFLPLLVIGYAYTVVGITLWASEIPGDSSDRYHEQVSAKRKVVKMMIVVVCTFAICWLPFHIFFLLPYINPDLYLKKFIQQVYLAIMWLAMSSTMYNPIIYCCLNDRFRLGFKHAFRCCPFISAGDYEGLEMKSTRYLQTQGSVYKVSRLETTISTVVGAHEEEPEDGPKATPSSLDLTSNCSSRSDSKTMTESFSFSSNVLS
# Procedure: (§1) The biological activity of the compounds of the present invention is evaluated employing an initial screening assay which rapidly and accurately measured the binding of the tested compound to known NK-1 and NK-2 receptor sites. Assays useful for evaluating tachykinin receptor antagonists are well known in the art. See, e.g., J. Jukic, et al., Life Sciences, 49:1463-1469 (1991); N. Kucharczyk, et al., Journal of Medicinal Chemistry, 36:1654-1661 (1993); N. Rouissi, et al., Biochemical and Biophysical Research Communications, 176:894-901 (1991).
# NK-1 Receptor Binding Assay
# Radioreceptor binding assays are performed using a derivative of a previously published protocol. D. G. Payan, et al., Journal of Immunology, 133:3260-3265 (1984). In this assay an aliquot of IM9 cells (1×10^6 cells/tube in […] medium supplemented with 10% fetal calf serum) is incubated with 20 pM ^125 I-labeled substance P in the presence of increasing competitor concentrations for 45 minutes at 4° C.
# The IM9 cell line is a well-characterized cell line which is readily available to the public. See, e.g., Annals of the New York Academy of Science, 190: 221-234 (1972); Nature (London), 251:443-444 (1974); Proceedings of the National Academy of Sciences (USA), 71:84-88 (1974). These cells are routinely cultured in RPMI 1640 supplemented with 50 μg/ml gentamicin sulfate and 10% fetal calf serum.
# The reaction is terminated by filtration through a glass fiber filter harvesting system using filters previously soaked for 20 minutes in 0.1% polyethylenimine. Specific binding of labeled substance P is determined in the presence of 20 nM unlabeled ligand.
# (§2) Column 1 provides the example number of the test antagonist compound as detailed supra. The next columns define the concentration of the test compound (in nanomolar quantities) which inhibits fifty percent of the binding of the appropriate neurokinin, as defined in the column heading. Certain values may represent the average of more than one experiment.
# human NK-2 receptor = molecular target: T2, human NK-2 receptor (Homo sapiens, UniProt P21452); assay: NK-2 Receptor Binding Assay ([125I]iodohistidyl-neurokinin A, CHO-hNK-2R membranes); conditions: inhibition of [125I]iodohistidyl-neurokinin A binding, 1 hour at room temperature, certain values may be average of more than one experiment
# T2 construct: expressed in transfected cells; host or cells: CHO-hNK-2R cells (membranes)
# T2 sequence (P21452 1-398): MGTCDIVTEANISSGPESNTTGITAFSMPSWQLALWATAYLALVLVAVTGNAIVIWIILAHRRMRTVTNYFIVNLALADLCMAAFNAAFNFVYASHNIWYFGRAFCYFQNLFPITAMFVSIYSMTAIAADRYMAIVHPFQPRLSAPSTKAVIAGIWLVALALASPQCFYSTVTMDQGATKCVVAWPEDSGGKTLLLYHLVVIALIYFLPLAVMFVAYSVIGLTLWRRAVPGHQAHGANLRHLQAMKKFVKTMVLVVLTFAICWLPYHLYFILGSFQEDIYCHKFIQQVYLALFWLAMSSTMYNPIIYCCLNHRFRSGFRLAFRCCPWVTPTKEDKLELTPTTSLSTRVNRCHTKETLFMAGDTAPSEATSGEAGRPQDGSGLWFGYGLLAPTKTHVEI
# Procedure: as §1
# NK-2 Receptor Binding Assay
# The CHO-hNK-2R cells, a CHO-derived cell line transformed with the human NK-2 receptor, expressing about 400,000 such receptors per cell, are grown in 75 cm^2 flasks or roller bottles in minimal essential medium (alpha modification) with 10% fetal bovine serum. The gene sequence of the human NK-2 receptor is given in N. P. Gerard, et al., Journal of Biological Chemistry, 265:20455-20462 (1990).
# For preparation of membranes, 30 confluent roller bottle cultures are dissociated by washing each roller bottle with 10 ml of Dulbecco's phosphate buffered saline (PBS) without calcium and magnesium, followed by addition of 10 ml of enzyme-free cell dissociation solution (PBS-based, from Specialty Media, Inc.). After an additional 15 minutes, the dissociated cells are pooled and centrifuged at 1,000 RPM for 10 minutes in a clinical centrifuge. Membranes are prepared by homogenization of the cell pellets in 300 ml 50 mM Tris buffer, pH 7.4 with a Tekmar® homogenizer for 10-15 seconds, followed by centrifugation at 12,000 RPM (20,000 x g) for 30 minutes using a Beckman JA-14® rotor. The pellets are washed once using the above procedure. and the final pellets are resuspended in 100-120 ml 50 mM Tris buffer, pH 7.4, and 4 ml aliquots stored frozen at -70° C. The protein concentration of this preparation is 2 mg/ml.
# For the receptor binding assay, one 4-ml aliquot of the CHO-hNK-2R membrane preparation is suspended in 40 ml of assay buffer containing 50 mM Tris, pH 7.4, 3 mM manganese chloride, 0.02% bovine serum albumin (BSA) and 4 μg/ml chymostatin. A 200 μl volume of the homogenate (40 μg protein) is used per sample. The radioactive ligand is [^125 I]iodohistidyl-neurokinin A (New England Nuclear, NEX-252), 2200 Ci/mmol. The ligand is prepared in assay buffer at 20 nCi per 100 μl; the final concentration in the assay is 20 pM. Non-specific binding is determined using 1 μM eledoisin. Ten concentrations of eledoisin from 0.1 to 1000 nM are used for a standard concentration-response curve.
# All samples and standards are added to the incubation in 10 μl dimethylsulfoxide (DMSO) for screening (single dose) or in 5 μl DMSO for IC50 determinations. The order of additions for incubation is 190 or 195 μl assay buffer, 200 μl homogenate, 10 or 5 μl sample in DMSO, 100 μl radioactive ligand. The samples are incubated 1 hour at room temperature and then filtered on a cell harvester through filters which had been presoaked for two hours in 50 mM Tris buffer, pH 7.7, containing 0.5% BSA. The filter is washed 3 times with approximately 3 ml of cold 50 mM Tris buffer, pH 7.7. The filter circles are then punched into 12×75 mm polystyrene tubes and counted in a gamma counter.
# as §2
# benzodiazepine receptor = conditions: Biochemical Pharmacology, 30:3016-3019 (1981); cited from earlier work
# rat alpha-fetoprotein = conditions: Journal of Steroid Biochemistry, 16:503-507 (1982); in vitro; cited from earlier work
# [1] = system: glucose transport in human erythrocytes; conditions: Arzneim-Forsch, 32(I):684-685 (1982); in vitro; cited from earlier work
# human erythrocytes = conditions: Arzneim-Forsch, 32(I):684-685 (1982); in vitro; cited from earlier work
Structure (SMILES),IC50 (NK-1 receptor) [µM],IC50 (human NK-2 receptor) [µM],also measured
"O=C(CN1CCC(Cc2ccccc2)CC1)NC(Cc1c[nH]c2ccccc12)C(=O)NCc1ccccc1Cl (centres unmarked) [Example 1, N-(2-chlorobenzyl)-3-(1H-indol-3-yl)-2-[(4-benzylpiperidin-1-yl)acetyl]amino]propanamide hydrochloride salt]",0.29,0.33,–
O=C1CN(CC(=O)NC(Cc2c[nH]c3ccccc23)C(=O)NCc2ccccc2Cl)C(=O)CN1 (centres unmarked) [Example 2],0.23,1.5,–
O=C(CN1CC(=O)N(Cc2ccccc2)CC1=O)NC(Cc1c[nH]c2ccccc12)C(=O)NCc1ccccc1 (centres unmarked) [Example 3],–,1.5,–
O=C(CN1CC(=O)N(Cc2ccccc2)CC1=O)NC(Cc1c[nH]c2ccccc12)C(=O)Nc1ccccc1 (centres unmarked) [Example 4],–,2.1,–
O=C(CN1CC(=O)N(Cc2ccccc2)CC1=O)NC(Cc1c[nH]c2ccccc12)C(=O)NCCc1ccccc1 (centres unmarked) [Example 5],–,0.74,–
O=C(CN1CC(=O)N(Cc2ccccc2)CC1=O)NC(Cc1c[nH]c2ccccc12)C(=O)NCc1ccccc1Cl (centres unmarked) [Example 6],0.041,0.082,–
O=C(CN1CCCCC1)NC(Cc1c[nH]c2ccccc12)C(=O)NCc1ccccc1Cl (centres unmarked) [Example 7],0.73,2.2,–
CN1CCN(CC(=O)NC(Cc2c[nH]c3ccccc23)C(=O)NCc2ccccc2Cl)CC1 (centres unmarked) [Example 8],0.078,3.4,–
CN1CC(=O)N(CC(=O)NC(Cc2c[nH]c3ccccc23)C(=O)NCc2ccccc2Cl)CC1=O (centres unmarked) [Example 18],0.095,3.1,–
NC(Cc1c[nH]c2ccccc12)C(=O)OCc1ccccc1 (centres unmarked) [benzyl 3-(3-indolyl)-2-aminopropionate],–,–,Inhibition of benzodiazepine receptor binding in vitro (benzodiazepine receptor): Inhibition; inhibition of estrogen binding to rat alpha-fetoprotein (rat alpha-fetoprotein): weak inhibition
CC(N)(C(=O)OCc1ccccc1)c1c[nH]c2ccccc12 (centres unmarked) [benzyl (2-(3-indolyl)-2-aminopropionate],–,–,inhibition of glucose transport in human erythrocytes [1]: inhibitor of glucose transport; antisickling activity (human erythrocytes): antisickling agent

# More lines, main results first:
IC50 (NK-1 receptor) [µM],IC50 (human NK-2 receptor) [µM],Structure (SMILES),also measured
0.03,0.24,O=C(CN1CCN(c2ccccc2)CC1)NC(Cc1c[nH]c2ccccc12)C(=O)NCc1ccccc1Cl (centres unmarked) [Example 9],–
0.14,0.57,O=C(CN1CCC(c2ccccc2)CC1)NC(Cc1c[nH]c2ccccc12)C(=O)NCc1ccccc1Cl (centres unmarked) [Example 10],–
0.034,0.24,"O=C(CN1CCN(Cc2ccccc2)CC1)NC(Cc1c[nH]c2ccccc12)C(=O)NCc1ccccc1Cl (centres unmarked) [Example 13, N-(2-chlorobenzyl)-3-(1H-indol-3-yl)-2-[(4-benzylpiperazin-1-yl)acetyl]amino]propanamide dihydrochloride salt]",–
0.067,0.65,COc1ccccc1CNC(=O)C(Cc1c[nH]c2ccccc12)NC(=O)CN1CCN(c2ccccc2)CC1 (centres unmarked) [Example 14],–
0.18,–,CN(Cc1ccccc1)C(=O)C(Cc1c[nH]c2ccccc12)NC(=O)CN1CCN(c2ccccc2)CC1 (centres unmarked) [Example 15],–
0.14,0.43,O=C(CN1CCN(c2ccccc2)CC1)NC(Cc1c[nH]c2ccccc12)C(=O)NCc1ccccc1 (centres unmarked) [Example 16],–
0.21,0.21,O=C(CN1CCN(c2ccccc2)CC1)NC(Cc1c[nH]c2ccccc12)C(=O)NCc1ccc(Cl)cc1 (centres unmarked) [Example 17],–
